In US9963476B2, “Antioxidant compound having anti atherosclerotic effect and preparation thereof” (Council of Scientific and Industrial Research, priority 2015, dated 2018):

Legend:
[1] = tested on: nitric oxide generation in HAEC; experiment: Intracellular nitric oxide levels by DAF-2DA fluorescence; format: cell-based, human; details: 2.5 μM, 4 h
Procedure: Intracellular nitric oxide levels were monitored by using the Diaminofluorescein-diacetate (DAF-2DA) fluorescence probe. After the treatments, cells were washed with DPBS and incubated in fresh culture medium without fetal bovine serum (FBS). DAF-2DA was added at a final concentration of 5 μM, and the cells were incubated for 30 minutes. The cells were washed twice with DPBS and maintained in culture medium. Fluorescence was monitored by using Olympus fluorescence microscope with FITC filter (λex=488 nm and […]). Fluorescence intensity was calculated by Image-Pro plus7.0 software.
(§1) To gain mechanistic insight on Mito-Esc-mediated protection of endothelial cells from oxidant-induced endothelial cell death, initially we hypothesized that Mito-Esc may augment intracellular nitric oxide generation. To study this, HAEC were treated with both Mito-Esc and esculetin in the presence or absence of H2O2 for a period of 4 h and nitric oxide (NO) levels were monitored by DAF-2 derived green fluorescence. Previously, it has been shown that DAF-2 forms a fluorescent triazole-type product in the presence of an oxidant derived from nitric oxide and oxygen interaction (Proc. Natl. Acad. Sci. USA 99: 11127-11132; 2002.; Am. J. Physiol. Regul. Integ. Comp. Physiol. 286:R344-R431; 2004). […] Next, we investigated the possible role of endothelial nitric oxide synthase (eNOS) in mediating the Mito-Esc induced NO generation in HAEC. For this, endothelial cells were treated with various concentrations of Mito-Esc (1-5 μM) for a period of 8 h. […] To further substantiate the results of DAF fluorescence, eNOS phosphorylation was measured in HAEC incubated with either with H2O2 or Ang-II for 8 h in cells pretreated with Mito-Esc or native esculetin. It was observed that both H2O2 and Ang-II caused a reduction in Phospho eNOS (Ser-1177) levels (FIG. 4D). Ang-II treatment imposed a drastic inhibition of phospho-eNOS levels when compared to H2O2 treatment in endothelial cells (FIG. 4D).

[2] = tested on: human aortic endothelial cells (HAEC); experiment: Trypan blue cell viability assay, oxidant-induced endothelial cell death; format: cell-based; details: 2.5 μM, 2 h pretreatment, H2O2 500 μM or Ang-II 500 nM, 24 h
Procedure: Human aortic endothelial cells (HAECs) were obtained from ATCC (Manassas, Va.) and maintained (37° C. 5% CO2) in basal medium supplemented with 10% FBS, VEGF (5 ng/mL), hEGF (5 ng/mL), hFGF (5 ng/mL), IGF-1 (15 ng/mL), ascorbic acid (50 μg/mL), hydrocortisone (1 μg/mL), amphotericin (15 ng/mL), gentamicin (30 ng/mL) and heparin (0.75 Units/mL). Cells used in this study were between passages 4 and 9. Esculetin, Mito-Esc, TPP and nitric oxide synthase inhibitor (L-NAME) were added 2 h before the addition of H2O2 or Ang-II.
At the end of the treatments, cells were harvested and re-suspended in 0.4% trypan blue (Life Technologies) and percent cell viability was counted using cell countess chamber (Life Technologies).
For this, cells were pretreated for 2 h with either Mito-Esc or esculetin before they were incubated with either H2O2 or Ang-II.

[3] = tested on: Apo E−/− mice aorta; experiment: Mito-Esc quantified by ESI-MS in cytosolic and mitochondrial fractions of ApoE−/− mice aortic tissue; format: in vivo; details: 0.5 mg/kg/day in drinking water
Procedure: After the treatment, cells were washed thrice with PBS. Similarly Mito-Esculetin+ Ang-II treatment group, Ang-II alone treatment group and control Apo E^-/- mice aortic tissue was taken. The isolation of mitochondrial and cytosolic extracts was carried out using a commercially available Proteo Extract Cytosol/Mitochondria Fractionation Kit (Cat. no. QIA88-Merck, USA) according to manufacturer's instructions. Initially, mitochondrial and cytosolic fractions were separated using a commercially available kit as mentioned elsewhere. Mito-Esc was quantified in the mitochondrial and cytosolic fractions obtained from HAEC and aorta of ApoE^-/- mice of different treatment groups as mentioned in Animal Experiments section (Table-1). Electrospray ionization (ESI)-MS. ESI-MS (positive mode) measurements were performed using a quadrupole time-of-flight mass spectrometer (QSTAR XL, Applied Biosystems/MDS Sciex, Foster City, Calif., USA). The data acquisition was under the control of Analyst QS software (Applied Biosystems). For the CID (collision-induced dissociation) experiments, the precursor ions were selected using the quadrupole analyzer and the product ions were analyzed using the TOF analyzer.

[4] = tested on: eNOS phosphorylation (Ser-1177); experiment: Western blot of eNOS phosphorylation in HAEC; format: cell-based, human; details: 8 h
Procedure: as §1

[5] = tested on: TNF-α, IFN-γ, MCP-1, Mac-3; experiment: Serum proinflammatory cytokines and Mac-3 levels in ApoE−/− mice
Procedure: Experiments were conducted in 2-month-old male apolipoprotein E knockout (ApoE^−/−) mice according to the guidelines formulated for care and use of animals in scientific research (ICMR, New Delhi, India) at a CPCSEA (Committee for the Purpose of Control and Supervision of Experiments on Animals) registered animal facility. […] Animals were randomly divided into 3 groups each n=7:1) control 2) Ang-II treatment and 3) Mito-Esculetin+Ang-II treatment. Ang-II and Mito-Esculetin treatment groups received Ang-II (sigma) at a dose of 1.44 mg/kg/day for 6 weeks through sub-cutaneous route where as control group received normal saline. Mito-Esculetin treatment group received the compound at a dose of 0.5 mg/kg/day in normal drinking water. All animals were fed on normal chow throughout the study. After 6 weeks, all groups of animals were sacrificed as per standard protocols for euthanasia.
We further analyzed the vascular remodelling employing histological stains in tissue sections of thoracic aortas. […] In tune with this, we have also measured Mac-3 levels by flow cytometry.

[6] = tested on: caspase-3 and -8 activation in HAEC; experiment: Caspase-3 and -8 activity in HAEC lysates; format: cell-based, human; details: 2.5 μM pretreatment
Procedure: HAEC were washed twice with cold DPBS and lysed in buffer containing 10-mM Tris-HCl, 10-mM NaH2PO4/Na2HPO4 (pH, 7.5). 130-mM NaCl. 1% Triton, and 10-mM sodium pyrophosphate. Cell lysates were incubated with either with caspase-3 fluorogenic substrate (N-acetyl-Asp-Glu-Val-Asp-7-amido-4-methylcoumarin) or caspase-8 fluorogenic substrate (N-acetyl-Ileu-Glu-Thr-Asp-7 amido-4-methylcoumarin) at 37° C. for 1 h. The 7-amido-4-methyl-coumarin liberated was measured in a multi mode reader (PerkinElmer) with λex=380 nm and λem=460 nm.

O=c1cc(CCCCCCCC[P+](c2ccccc2)(c2ccccc2)c2ccccc2)c2cc(O)c(O)cc2o1.[Br-] [Mito-Esc]
DAF-2 fluorescence (NO production), compound alone [1]: greatly enhanced | H2O2-mediated depletion of NO levels ([1]; H2O2 500 μM): significantly restored | oxidant (H2O2 and Ang-II)-induced endothelial cell death [2]: significantly inhibited | Mitochondrial fraction [3]: 2547 ± 286 nmol/mg protein | phosphorylation of eNOS at Ser-1177 ([4]; 1-5 μM): dose-dependently increased | oxidant-mediated decrease in eNOS-phosphorylation ([4]; H2O2 or Ang-II, pretreated cells): caused cells resistant to oxidant-mediated decrease | Ang-II-induced proinflammatory cytokines (TNF-α, IFN-γ, MCP-1) production ([5]; ApoE−/− mice serum): significant inhibition | Mac-3 levels by flow cytometry ([5]; ApoE−/− mice, by 30 days of treatment): inhibition of Mac3 levels | H2O2 and Ang-II-induced caspase-3 and -8 activation [6]: markedly resistant
